The source of these data is patent US8309560B2, “Methods and compositions for ameliorating the undesirable effects of chemotherapy” (Sound Pharmaceuticals Incorporated, priority 2001, dated 2012).

In assay [1] the test system is NuTu-19 ovarian cancer cells. As to the kind of experiment: MTS cell viability assay of cultured NuTu-19 cells. It counts as cell-based. The conditions noted are these: for inhibition of the ability of cisplatin to kill NuTu-19 ovarian cancer tumor cells in culture: single chemoprotectant plus cisplatin 43 μM (FIG. 2-4). On the procedure: NuTu-19 cells were plated at a density of 3,000 cells per well in 96 well culture dishes, and incubated at 37° C., in the presence of 5% carbon dioxide, for 24 hours. N-acetylcysteine, Ebselen or allopurinol were incubated for one hour, or for four hours, with the NuTu-19 cells, then cisplatin was added to the cultures which were further incubated at 37° C., in the presence of 5% carbon dioxide, for 24 hours. The NuTu-19 cells were then rinsed with media and incubated in […] cisplatin for an additional 24 hours.
The NuTu-19 cells were then rinsed twice with phosphate buffered saline (PBS), then MTS assays were performed to measure the number of living cells. MTS is an abbreviation for (3-(4,5-dimethylthiazol-2-yl)-5-(3-carboxymethoxyphenyl)-2-(4-sulfophenyl)-2H-tetrazolium. The MTS assay is a colorimetric method for determining the number of viable cells based upon physiologic catabolism of MTS to a formazan product that is soluble in tissue culture medium. The absorbance of the formazan product at 490 nm can be measured directly from a 96 well plate using a plate reader. Increased absorbance at 490 nm correlates with increased production of formazan in a well. This is typically due to more viable cells present in a well.
In general terms: Tetrazolium assays rely on reduction of a dye to a coloured formazan, in cell work by metabolically active cells.

In a further assay the test system is inner ear hair cells. As to the kind of experiment: Cochlea explant culture, inner ear hair cell count after cisplatin. It counts as cell-based, mouse. The conditions noted are these: 43 μM cisplatin plus 47 μM Ebselen, 24 hours (FIG. 7). The protocol: Three cochlea per treatment, obtained from P3-4 mouse pups, were cultured in 0.4 micrometer MilliCell-CM inserts with NeuroBasal A medium plus B27 supplement. After 24 hours in culture Ebselen was added to the medium, incubated for ten minutes, and then cisplatin was added to the medium at a final concentration of 43 μM. A first control treatment included 43 μM cisplatin. A second control treatment included 47 μM Ebselen without the addition of cisplatin. All cultures were incubated for 24 hours at 37° C. in 5% carbon dioxide.
The explants were then harvested, fixed, and stained with calbindin (which detects hair cells) and DAPI (4′,6-Diamindino-2-phenylindole; for detection of nuclear DNA).

In the next assay the test system is hearing in rats. As to the kind of experiment: Auditory Evoked Brainstem Response (ABR), permanent threshold shift after cisplatin. It counts as in vivo, rat. The note with it: cisplatin 16 mg/kg plus Ebselen 16 mg/kg i.p., compared to cisplatin without Ebselen, 72 hours (FIG. 8). The protocol:
(§1) Auditory Evoked Brainstem Response (ABR) was used to assess hearing in rats before and after exposure to cisplatin and chemoprotectants. Ebselen or DMSO (control vehicle) were introduced intraperitoneally into rats one hour before intraperitoneal administration of cisplatin at a dosage of 16 mg/kg body weight. Seventy two hours after delivery of cisplatin, ABR data were collected, animals were sacrificed, cochleae were collected, dissected, stained with FITC-phalloidin (to detect F-Actin in hair cells), and DAPI (to detect nuclear DNA).

The subject of assay [2] is cochlear outer hair cells. As to the kind of experiment: Count of outer auditory hair cells in excised cochleae after cisplatin. In kind it is in vivo, rat. The note with it: rats, cisplatin plus Ebselen compared to cisplatin without Ebselen (FIG. 10A, 10B). On the procedure:
as §1
Additionally, cochleae were excised from rats treated with the combination of cisplatin and Ebselen as described in this Example. Cochleae were also excised from rats treated with cisplatin and saline and DMSO (control). The number of outer auditory hair cells in the excised cochlea were counted at intervals of 0.1 mm along the cochlea. Representative results from a control rat and a treated rat are shown in FIG. 10A and FIG. 10B, respectively.

`O=c1c2ccccc2[se]n1-c1ccccc1` [Ebselen, 2-phenyl-1,2-benzoisoselenazol-3(2H)-one]: in assay [1], the “inhibition of the ability of cisplatin to kill NuTu-19 ovarian cancer tumor cells in culture” value is “does not inhibit”. Also, the “number of inner ear hair cells (protection from damage by cisplatin in vitro)” value in the assay on inner ear hair cells is given as “protects”. Also, in the assay with hearing in rats, the “permanent threshold shift (PTS) in hearing at 8, 16, 24 and 32 kHz” value is on record as “less”. In assay [2], the “percentage of outer hair cells missing in cochleae” value is listed as “less”. As to `CC(=O)N[C@@H](CS)C(=O)O` [N-acetylcysteine, N-acetyl-L-Cysteine], in assay [1], the “inhibition of the ability of cisplatin to kill NuTu-19 ovarian cancer tumor cells in culture” value is given as “does not inhibit”. Still for that read-out and setting: to `Oc1ncnc2[nH]ncc12` [allopurinol, 4-hydroxypyrazolo[3,4-d]pyrimidine] belongs “does not inhibit”.

For `N.N.[Cl][Pt][Cl]` [cisplatin, cis-diamminedichloroplatinum], the “percentage of live, cultured NuTu-19 ovarian cancer cells” value in assay [1] (incubation for 24 hours in the presence of cisplatin (FIG. 1)) is reported as “killed”.
